Measured values published in patent US10246469B2, “Biaryl kinase inhibitors” (BRISTOL-MYERS SQUIBB COMPANY, priority 2015, dated 2019).

Molecular target: T1, GST-Xa-hAAK1 (Homo sapiens, UniProt Q2M2I8)
T1 construct: GST (N); Factor Xa cleavage site (Xa) (internal); made in house
Test: AAK1 Kinase Assay
Assay type: biochemical
Details: bacterially expressed GST-Xa-hAAK1 3.5 nM; ATP 22 μM; fluoresceinated peptide 1.5 μM; 3 hours at room temperature; Caliper LabChip 3000
Procedure, shortened: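 Bacterially expressed GST-Xa-hAAK1 (3.5 nM) phosphorylated 1.5 μM 5-FAM peptide with 22 μM ATP in Tris pH 7.4, MgCl2, DTT, 1.6% DMSO, 3 h at room temperature. EDTA-stopped; product separated electrophoretically on Caliper LabChip. IC50 from eleven concentrations by non-linear regression.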

T1 sequence (Q2M2I8 whole entry): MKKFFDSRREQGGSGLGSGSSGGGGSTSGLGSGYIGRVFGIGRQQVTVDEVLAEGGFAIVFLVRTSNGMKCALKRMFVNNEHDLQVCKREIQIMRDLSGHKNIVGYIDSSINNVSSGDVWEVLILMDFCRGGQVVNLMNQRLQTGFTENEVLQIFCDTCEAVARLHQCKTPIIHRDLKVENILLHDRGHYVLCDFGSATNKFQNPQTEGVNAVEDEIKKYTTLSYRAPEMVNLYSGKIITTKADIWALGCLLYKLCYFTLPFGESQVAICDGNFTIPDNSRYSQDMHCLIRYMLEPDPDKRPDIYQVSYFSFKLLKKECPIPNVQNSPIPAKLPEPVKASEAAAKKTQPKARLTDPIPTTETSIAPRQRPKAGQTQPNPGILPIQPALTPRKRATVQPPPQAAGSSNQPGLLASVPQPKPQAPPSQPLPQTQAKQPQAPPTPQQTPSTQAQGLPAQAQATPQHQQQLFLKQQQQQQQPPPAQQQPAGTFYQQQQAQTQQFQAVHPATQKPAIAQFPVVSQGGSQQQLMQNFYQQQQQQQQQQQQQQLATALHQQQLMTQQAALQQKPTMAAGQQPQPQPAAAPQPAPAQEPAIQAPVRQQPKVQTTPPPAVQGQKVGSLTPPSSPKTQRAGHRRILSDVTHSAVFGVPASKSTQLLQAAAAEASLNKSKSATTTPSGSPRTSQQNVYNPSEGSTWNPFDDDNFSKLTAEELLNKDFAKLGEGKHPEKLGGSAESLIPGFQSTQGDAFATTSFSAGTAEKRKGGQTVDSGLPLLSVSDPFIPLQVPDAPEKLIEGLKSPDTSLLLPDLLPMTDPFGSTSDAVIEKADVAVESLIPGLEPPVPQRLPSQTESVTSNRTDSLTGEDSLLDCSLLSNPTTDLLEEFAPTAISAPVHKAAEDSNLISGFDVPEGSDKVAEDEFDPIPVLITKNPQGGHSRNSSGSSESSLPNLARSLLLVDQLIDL

With `Cc1nc(-c2ccnc3ccnn23)ccc1OCC(N)(CC(C)C)C(F)(F)F` (stereo not drawn) [Example 490, 1,1,1-trifluoro-4-methyl-2-(((2-methyl-6-(pyrazolo[1,5-a]pyrimidin-7-yl)pyridin-3-yl)oxy)methyl)pentan-2-amine] the IC50 was 37 nM.
Compound `Cc1cn2nccc(-c3ccc(OC[C@@](C)(N)CC(C)C)c(C#N)c3)c2n1` [Example 492, (S)-2-((2-amino-2,4-dimethylpentyl)oxy)-5-(2-methylimidazo[1,2-b]pyridazin-8-yl)benzonitrile] has an IC50 of 1.8 nM.
Work on `CC(C)C[C@](C)(N)COc1ccc(-c2ccnn3cc(C4CC4)nc23)cc1F` [Example 493, (S)-1-(4-(2-cyclopropylimidazo[1,2-b]pyridazin-8-yl)-2-fluorophenoxy)-2,4-dimethylpentan-2-amine] yielded an IC50 of 15 nM.
`CC(C)C[C@](C)(N)COc1ccc(-c2cc(Cl)nn3cc(C4CC4)nc23)cc1C#N` [Example 494, (5)-2-((2-amino-2,4-dimethylpentyl)oxy)-5-(6-chloro-2-cyclopropylimidazo[1,2-b]pyridazin-8-yl)benzonitrile] was tested, and the IC50 was 222 nM.
In the case of `Cc1cn2nc(Cl)cc(-c3ccc(OC[C@@](C)(N)CC(C)C)c(C(F)(F)F)c3)c2n1` [Example 495, (S)-1-(4-(6-chloro-2-methylimidazo [1,2-b]pyridazin-8-yl)-2-(trifluoromethyl)phenoxy)-2,4-dimethylpentan-2-amine], the IC50 is reported as 66 nM.
With `CC(C)C[C@](C)(N)COc1ccc(-c2cc(Cl)nn3cc(C4CC4)nc23)cc1C(F)(F)F` [Example 496, (S)-1-(4-(6-chloro-2-cyclopropylimidazo [1,2-b]pyridazin-8-yl)-2-(trifluoromethyl)phenoxy)-2,4-dimethylpentan-2-amine] the IC50 was 297 nM.
With `Cc1cn2nccc(-c3ccc(OC[C@@](C)(N)CC(C)C)c(F)c3)c2n1` [Example 497, (S)-1-(2-fluoro-4-(2-methylimidazo [1,2-b]pyridazin-8-yl)phenoxy)-2,4-dimethylpentan-2-amine] the IC50 was 11 nM.
`Cc1cn2nccc(-c3ccc(OC[C@@](C)(N)CC(C)C)c(C(F)(F)F)c3)c2n1` [Example 498, (S)-2,4-dimethyl-1-(4-(2-methylimidazo[1,2-b]pyridazin-8-yl)-2-(trifluoromethyl)phenoxy)pentan-2-amine] showed an IC50 of 0.5 nM.
Compound `CC(C)C[C@](C)(N)COc1ccc(-c2ccnn3cc(C4CC4)nc23)cc1C#N` [Example 499, (S)-2-((2-amino-2,4-dimethylpentyl)oxy)-5-(2-cyclopropylimidazo[1,2-b]pyridazin-8-yl)benzonitrile] has an IC50 of 1.2 nM.
For `Cc1cc(-c2ccnn3cc(C(F)(F)F)nc23)ccc1OC[C@@](C)(N)CC(C)C` [Example 500, (S)-2,4-dimethyl-1-(2-methyl-4-(2-(trifluoromethyl)imidazo[1,2-b]pyridazin-8-yl)phenoxy)pentan-2-amine], the IC50 was 30 nM.
`CC(C)C[C@](C)(N)COc1ccc(-c2ccnn3cc(C(F)(F)F)nc23)cc1` [Example 501, (S)-2,4-dimethyl-1-(4-(2-(trifluoromethyl)imidazo[1,2-b]pyridazin-8-yl)phenoxy)pentan-2-amine] gave an IC50 of 69 nM.
With `Cc1cc(-c2cnc3cccnn23)ccc1OC[C@@](C)(N)CC(C)C` [Example 502, (S)-1-(4-(imidazo[1,2-b]pyridazin-3-yl)-2-methylphenoxy)-2,4-dimethylpentan-2-amine] the IC50 was 144 nM.
In the case of `CC(C)C[C@](C)(N)COc1ccc(-c2cnc3cccnn23)cc1Cl` [Example 503, (S)-1-(2-chloro-4-(imidazo [1,2-b]pyridazin-3-yl)phenoxy)-2,4-dimethylpentan-2-amine], the IC50 is reported as 62 nM.
Compound `Cc1cc(-c2ccnn3cc(C(F)(F)F)nc23)cnc1OC[C@](C)(N)CC(C)C` [Example 504, (R)-2,4-dimethyl-1-((3-methyl-5-(2-(trifluoromethyl)imidazo[1,2-b]pyridazin-8-yl)pyridin-2-yl)oxy)pentan-2-amine] has an IC50 of 606 nM.
`CC(C)C[C@](C)(N)COc1ccc(-c2cc(=O)[nH]cn2)cc1Cl` [Example 509, (S)-6-(4-((2-amino-2,4-dimethylpentyl)oxy)-3-chlorophenyl)pyrimidin-4(3H)-one] was tested, and the IC50 was 6.1 nM.
